Laboratory results: article PMC9019904, “AD Informer Set: Chemical tools to facilitate Alzheimer's disease drug discovery” (Alzheimer's & Dementia : Translational Research & Clinical …, 2022)

Assays:
[1] = tested on: HMC3 (human microglia) cell line; assay: pHrodo-myelin phagocytosis/cell viability high content imaging assay: viability (cell count, nuclear area, nuclear intensity); conditions: 48 hours treatment
Procedure: (§1) All AD Informer Set compounds were tested in two immortalized microglial cell lines, murine (BV2), and human (HMC3), in a high‐content imaging assay in duplicate by the Chu lab. Experimental details and all data can be found as supporting information files.
(§2) The role of microglia in AD has been well documented and was thus chosen as a cell type in which to profile the AD Informer Set.[43], [44], [45] As an example, neuroinflammation, as detected by the presence of activated complement proteins, interleukins, cytokines, and chemokines in microglia and astrocytes, is increased early in AD and is considered pathogenic due to its chronic nature.[33], [34] Cytotoxic effects can be assessed by considering multiple parameters.
(§3) Microglial viability and phagocytosis studies: The pHrodo-myelin phagocytosis/cell viability assay, modified based on a published method, was run with immortalized BV2 (mouse microglia) and HMC3 (human microglia) cell lines in the Chu lab at IUSM. The 384-well plate high content analysis assay with BV2 and HMC3 microglial cell lines is used to quantify both phagocytosis and cell viability simultaneously. High content imaging is performed with the ArrayScan automatic imaging system and imaging analysis done with the software on the system. After allowing cells to adhere overnight, they are treated with compounds for total 48 hours including final 20 hours seeded with pHrodo-myelin (labeled phagocytosis ligand, purified […]
(§4) (approximately 22 hours after pHrodo-myelin addition). Three measurements are extracted from the assay: 1) phagocytosis signal by mean total phagocytosis spot intensity per cell, 2) total cell counts per well as the main measurement of cell viability, and 3) mean average nuclear intensity per cell as profiling of cell health since apoptotic cells showing nuclear intensity increase (early apoptosis) and decrease (later apoptosis), respectively. These measurements allow for evaluation of compound-induced phagocytosis (1) and cytotoxicity (2 and 3). Assays were carried out at a single concentration (10 μM). Idelalisib (10 μM) and cytochalasin-D (4 μM) were used as positive controls in the assay. All data, which was an average of 2 data points, was normalized to untreated wells and reported as % control, which is included in the Supporting Information both as a raw data file and summarized in the compound/gene-annotation file.

[2] = tested on: BV2 (mouse microglia) cell line; assay: as above; conditions: 48 hours treatment
Procedure: as §1, §2, §3, §4

[3] = tested on: HMC3 (human microglia) cell line; assay: pHrodo-myelin phagocytosis/cell viability high content imaging assay: phagocytosis signal; assay type: cell-based
Procedure: (§5) It is important to note that stressed cells, such as those that are dying, are prone to show an increase in phagocytosis. […] MerTK promotes phagocytosis and thus MerTK inhibition is proposed to lead to inhibition of phagocytosis.[47]
(§6) phagocytosis and cell viability simultaneously. High content imaging is performed with the
(§7) (approximately 22 hours after pHrodo-myelin addition). Three measurements are extracted
(§8) intensity increase (early apoptosis) and decrease (later apoptosis), respectively. These
and 3). […]

[4] = tested on: BV2 (mouse microglia) cell line; assay: as above; assay type: cell-based
Procedure: as §5, §6, §7, §8
and 3). […]

[5] = HMC3 cells, 10 uM compound, 48 hours treatment, pHrodo-myelin final 20 hours
[6] = BV2 cells, 10 uM compound, 48 hours treatment, pHrodo-myelin final 20 hours
[7] = HMC3, compound 10 uM, pHrodo-myelin
[8] = BV2, compound 10 uM, pHrodo-myelin

Row | SMILES | 1. Cell count (% control) ([1]; HMC3 cells, 10 uM compound) | 2. Nuclear Area (% Control) ([1]; HMC3 cells, 10 uM compound) | 3. Nuclear DNA Intensity (% control) ([1]; HMC3 cells, 10 uM compound) | 1. Cell count (% control) ([2]; BV2 cells, 10 uM compound) | 2. Nuclear Area (% Control) ([2]; BV2 cells, 10 uM compound) | 3. Nuclear DNA Intensity (% control) ([2]; BV2 cells, 10 uM compound) | 4. Phagocytosis (% control) [3, 5] [% control] | 4. Phagocytosis (% control) [4, 6] [% control] | 1. Cell count (% control) ([1]; HMC3, compound 10 uM) | 2. Nuclear Area (% Control) ([1]; HMC3, compound 10 uM) | 3. Nuclear DNA Intensity (% control) ([1]; HMC3, compound 10 uM) | 1. Cell count (% control) ([2]; BV2, compound 10 uM) | 2. Nuclear Area (% Control) ([2]; BV2, compound 10 uM) | 3. Nuclear DNA Intensity (% control) ([2]; BV2, compound 10 uM) | 4. Phagocytosis (% control) [3, 7] [% control] | 4. Phagocytosis (% control) [4, 8] [% control]
1 | C[C@H]1Oc2cc(cnc2N)-c2c(nn(C)c2C#N)CN(C)C(=O)c2ccc(F)cc21 [UNC10244898A] | 127.2 | 110.3 | 89.2 | 117.2 | 102.7 | 110.1 | 37.8 | 200.3 |  |  |  |  |  |  |  | 
2 | N[C@@H](CC(=O)Nc1ccc(Oc2cc(F)c(F)cc2Br)cc1)C(=O)O [UNC10303167A] |  |  |  |  |  |  |  |  | 105.9 | 102.5 | 96.0 | 64.5 | 104.8 | 103.7 | 85.8 | 179.3
3 | CSc1ccc2c(c1)c(CCN)c(C)n2Cc1ccc(Cl)cc1Cl.Cl [UNC10302700A] |  |  |  |  |  |  |  |  | 10.1 | 49.3 | 146.5 | 22.6 | 113.6 | 33.9 | 0.0 | 0.00395
4 | O=S(=O)(c1ccccc1)N(CC(F)(F)F)c1ccc(C(O)(C(F)(F)F)C(F)(F)F)cc1 [UNC10302875A] | 121.7 | 100.6 | 97.9 | 109.2 | 107.3 | 110.7 | 59.3 | 216.4 |  |  |  |  |  |  |  | 
5 | Cc1cc(Nc2ncc(Cl)c(Nc3ccccc3S(=O)(=O)C(C)C)n2)c(OC(C)C)cc1C1CCNCC1 [UNC10244729A] | 28.7 | 60.3 | 155.5 | 19.2 | 92.5 | 49.1 | 0.00248 | 0.00122 |  |  |  |  |  |  |  | 
6 | Nc1ncnc2c1nc(Br)n2[C@@H]1O[C@@H]2COP(=O)([O-])O[C@H]2[C@H]1O.[Na+] [UNC10302698A] |  |  |  |  |  |  |  |  | 137.9 | 97.3 | 96.1 | 97.0 | 105.8 | 98.8 | 80.6 | 164.5
7 | C=CC[C@@H]1/C=C(\C)C[C@H](C)C[C@H](OC)[C@H]2O[C@@](O)(C(=O)C(=O)N3CCCC[C@H]3C(=O)O[C@H](/C(C)=C/[C@@H]3CC[C@@H](O)[C@H](OC)C3)[C@H](C)[C@@H](O)CC1=O)[C@H](C)C[C@@H]2OC [UNC10121346A] | 103.0 | 100.5 | 98.5 | 60.9 | 110.1 | 115.2 | 110.2 | 195.2 |  |  |  |  |  |  |  | 
8 | O=C(Nc1ccc([N+](=O)[O-])cc1Cl)c1cc(Cl)ccc1O [UNC10302856A] | 150.0 | 101.6 | 94.0 | 132.8 | 104.4 | 103.0 | 50.1 | 133.2 |  |  |  |  |  |  |  | 
9 | COc1nc(OCc2cccc(-c3ccccc3)c2C)ccc1CNCCNC(C)=O.Cl [UNC10302832A] | 35.9 | 69.0 | 171.8 | 21.6 | 92.8 | 35.4 | 0.4 | 0.00132 |  |  |  |  |  |  |  | 
10 | CCn1c(=O)/c(=C2\Sc3ccccc3N2C)s/c1=C\c1ccccn1 [UNC10302975A] | 120.1 | 99.3 | 95.9 | 107.1 | 104.2 | 108.3 | 87.9 | 118.8 |  |  |  |  |  |  |  | 
11 | Cc1cc(SCc2sc(-c3ccc(C(F)(F)F)c(F)c3)nc2C)ccc1OCC(=O)O [UNC10302862A] | 84.5 | 103.8 | 93.4 | 73.4 | 105.0 | 104.6 | 107.7 | 104.2 |  |  |  |  |  |  |  | 
12 | CC(Nc1nc(N2CCCC2)nc2ccccc12)c1ccccc1 (centres unmarked) [UNC10302900A] | 56.4 | 90.6 | 151.6 | 9.8 | 106.6 | 119.7 | 34.5 | 110.9 |  |  |  |  |  |  |  | 
13 | Cc1cc(Nc2nc(N[C@@H](C)c3ncc(F)cn3)ncc2Cl)n[nH]1 [UNC10302859A] |  |  |  |  |  |  |  |  | 84.7 | 121.3 | 92.5 | 53.2 | 109.7 | 105.5 | 95.5 | 153.2
